Like-named read-outs stand apart in the source and are kept apart here.
Experiments:
[1] = target: T1, hTLR7 (Homo sapiens, UniProt Q9NYK1); experiment: EC50 assay for small molecule agonists, HEK-Blue hTLR7 cells, SEAP readout; type: cell-based; conditions: agonist activity
T1 construct: host or cells: HEK-Blue hTLR7 (HEK293-derived reporter cells with SEAP read-out)
T1 sequence (Q9NYK1 27-1049): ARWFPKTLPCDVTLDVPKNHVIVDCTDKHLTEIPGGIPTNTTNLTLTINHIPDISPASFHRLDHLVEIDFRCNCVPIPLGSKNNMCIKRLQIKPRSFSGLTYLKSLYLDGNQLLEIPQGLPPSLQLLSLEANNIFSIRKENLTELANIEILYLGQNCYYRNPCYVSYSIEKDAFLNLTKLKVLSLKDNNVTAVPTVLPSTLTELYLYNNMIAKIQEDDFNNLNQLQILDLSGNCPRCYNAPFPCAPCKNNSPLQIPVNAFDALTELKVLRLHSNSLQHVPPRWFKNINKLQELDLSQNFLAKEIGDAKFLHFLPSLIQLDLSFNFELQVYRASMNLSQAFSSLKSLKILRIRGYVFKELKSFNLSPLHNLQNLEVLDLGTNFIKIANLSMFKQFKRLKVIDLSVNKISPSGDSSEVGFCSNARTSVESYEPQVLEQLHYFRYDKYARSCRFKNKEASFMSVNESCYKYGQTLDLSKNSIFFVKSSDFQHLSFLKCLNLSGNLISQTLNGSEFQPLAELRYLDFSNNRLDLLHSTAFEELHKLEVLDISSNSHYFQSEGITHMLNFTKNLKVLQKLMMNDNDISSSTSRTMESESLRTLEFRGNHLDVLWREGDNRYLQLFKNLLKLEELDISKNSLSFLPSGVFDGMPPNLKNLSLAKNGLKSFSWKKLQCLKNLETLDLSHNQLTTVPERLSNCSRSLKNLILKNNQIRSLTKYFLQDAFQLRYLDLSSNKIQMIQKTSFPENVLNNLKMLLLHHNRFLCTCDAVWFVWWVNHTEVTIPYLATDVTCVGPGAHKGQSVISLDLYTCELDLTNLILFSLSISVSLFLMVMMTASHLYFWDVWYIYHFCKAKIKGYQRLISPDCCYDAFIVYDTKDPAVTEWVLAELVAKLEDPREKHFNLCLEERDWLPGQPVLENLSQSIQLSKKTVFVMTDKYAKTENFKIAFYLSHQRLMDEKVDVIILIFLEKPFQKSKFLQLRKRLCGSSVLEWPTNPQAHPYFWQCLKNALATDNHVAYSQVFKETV
Protocol: (§1) Reagents used for cell culture and detection for HEK-Blue™ hTLR7, HEK-Blue™ hTLR8 and control HEK-Blue Nu112k were as follows: DMEM (4.5 g/L glucose), bovine serum FBS, streptomycin ([…]), penicillin (50 U/mL), Blasticidin (10 mg/mL), Zeocin™ (10 mg/mL), Normocin (50 mg/mL), and HEK-Blue™ Detection. Basal medium was as follows: DMEM +10% FBS+streptomycin+penicillin+Normocin ([…]); selective medium for resistance genes was as follows: DMEM+10% FBS+streptomycin+penicillin+Normocin (1001 μg/mL)+Blasticidin (1001 μg/mL)+Zeocin™ (1001 μg/mL).
(§2) Cell preparation: HEK-Blue™ hTLR7 and HEK-Blue™ hTLR8 cell lines were purchased from Invivogen. The cells frozen in liquid nitrogen were taken, quickly placed in a water bath at 37° C., shaken occasionally, and completely melted within 1 min. The cells were transferred to 15 mL of pre-heated basal medium and resuspended; centrifuged at 1,000 r/min for 5 min, supernatant discarded; resuspended with 1 mL of basal medium, transferred to a T25 culture flask, supplemented to 5 mL with the medium, and incubated in an incubator at 37° C.; after stable passage twice, and subjected to selective antibiotic screening: HEK-Blue™ hTLR7 or HEK-Blue™ hTLR8: 100 μg/mL Zeocin+Blasticidin (30 μg/mL), HEK-Blue Nu112-k: 100 μg/mL Zeocin. The fluid was changed 3 times a week. When the number of cells reached 70%-80%, PBS was added, and the cells were exfoliated by gently pipetting.
(§3) Activity assay steps: (1) adding a test sample to a 96-well plate at 20 μL/well (triplicate wells were set); (2) adding 20 μL of positive control (e.g., R848), and adding 20 μL of negative control (e.g., ddH2O); (3) removing a T75 culture flask from the incubator, discarding the medium, adding 5-10 mL of pre-heated PBS, and gently pipetting the cells; adding 2-5 mL of PBS to the culture flask, incubating the culture flask in the incubator for 1-2 min, and then gently pipetting the cells to make them exfoliated; (4) mixing the mixture well, and counting the cells, without centrifugation; resuspending the cells with HEK-Blue™ assay solution and adjusting the cell number, taking care not to incubate for a long time to avoid too deep background or false positive. HEK-Blue hTLR cell number was about 2.2×10^5/mL, 180 μL/well (about 40000 cells), and HEK-Blue Nu112-k cell number was about 2.8×10^5/mL, 180 μL/well (about 50000 cells). (5) incubating the cells in the incubator at 37° C. for 6-16 h, and detecting at 620-655 nm for SEAP readings.
(§4) Effect %=(mean OD of the administration group−mean OD of the H2O group at each concentration)/(mean ODmax of the positive drug group−mean OD of the H2O group)×100. EC50 was calculated by fitting Lg [concentration]-effect curves using GraphPad Prism5 software.
(§5) Experimental results: the concentration for 50% of maximal effect (EC50) refers to a corresponding concentration of small molecules that can cause 50% of the maximal agonistic effect. […] EC50 represents a potency for agonizing the TLR8 receptor, with smaller values indicating better efficacy. […] In the following table, the unit of the agonist activity is nanomole, unless otherwise specified.

[2] = target: T2, hTLR8 (Homo sapiens, UniProt Q9NR97); experiment: EC50 assay for small molecule agonists, HEK-Blue hTLR8 cells, SEAP readout; type: cell-based
T2 construct: host or cells: HEK-Blue hTLR8 (HEK293-derived reporter cells with SEAP read-out)
T2 sequence (Q9NR97 27-1041): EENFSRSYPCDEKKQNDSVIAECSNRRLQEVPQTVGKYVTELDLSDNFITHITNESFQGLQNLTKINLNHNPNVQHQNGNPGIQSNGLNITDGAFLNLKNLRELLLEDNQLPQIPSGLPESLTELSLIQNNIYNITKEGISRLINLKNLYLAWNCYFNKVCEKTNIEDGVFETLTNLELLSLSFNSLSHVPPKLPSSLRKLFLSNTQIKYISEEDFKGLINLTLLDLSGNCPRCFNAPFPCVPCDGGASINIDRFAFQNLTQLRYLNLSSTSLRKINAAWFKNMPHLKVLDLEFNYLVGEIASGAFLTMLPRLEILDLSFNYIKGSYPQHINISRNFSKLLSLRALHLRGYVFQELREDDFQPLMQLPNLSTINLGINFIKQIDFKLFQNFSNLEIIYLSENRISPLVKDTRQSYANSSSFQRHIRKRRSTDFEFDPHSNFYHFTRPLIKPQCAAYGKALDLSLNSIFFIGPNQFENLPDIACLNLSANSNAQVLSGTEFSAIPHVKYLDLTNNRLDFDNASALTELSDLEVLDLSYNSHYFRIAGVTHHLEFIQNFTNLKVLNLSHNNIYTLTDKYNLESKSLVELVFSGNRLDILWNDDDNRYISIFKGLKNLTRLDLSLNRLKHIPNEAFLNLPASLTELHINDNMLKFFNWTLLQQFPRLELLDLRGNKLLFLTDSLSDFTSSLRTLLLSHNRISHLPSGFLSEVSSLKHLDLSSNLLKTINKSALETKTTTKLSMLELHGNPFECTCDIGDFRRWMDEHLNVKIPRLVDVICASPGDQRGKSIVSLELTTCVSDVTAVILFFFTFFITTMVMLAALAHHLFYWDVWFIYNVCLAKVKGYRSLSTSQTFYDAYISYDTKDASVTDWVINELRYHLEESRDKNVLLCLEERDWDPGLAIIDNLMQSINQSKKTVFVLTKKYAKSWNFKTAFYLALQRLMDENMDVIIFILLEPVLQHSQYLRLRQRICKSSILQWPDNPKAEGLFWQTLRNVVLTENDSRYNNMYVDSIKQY
Protocol: as §1, §2, §3, §4, §5

[3] = agonist activity, read-out: hTLR8(EC50)
[4] = read-out: concentration for 50% of maximal effect (EC50) hTLR8

| EC50 ([1]; nd = EC50 larger than 25 μM) [nM] | EC50 [2, 3] [nM] | EC50 [1] [nM] | EC50 [2, 4] [nM] | Structure (SMILES) |
| --- | --- | --- | --- | --- |
| > 25000 | 58 | – | – | CCCCCc1cc(Cc2ccc(CN(C)C)cc2)c(C)nc1N [Compound N4] |
| > 25000 | 84 | – | – | CCCCCc1cc(Cc2ccc(CNC)cc2)c(C)nc1N [Compound N6] |
| > 25000 | 63 | – | – | CCCCCc1cc(Cc2ccc(CN3CCCC3)cc2)c(C)nc1N [Compound N7] |
| > 25000 | 122 | – | – | CCCCCc1cc(Cc2ccc(CN)cc2)c(C)nc1N [Compound N5] |
| > 25000 | 121 | – | – | CCCCCc1cc(Cc2ccc(CN3CCC3)cc2)c(C)nc1N [Compound N17] |
| > 25000 | 117 | – | – | CCCCCc1cc(Cc2ccc(CN3CC(O)C3)cc2)c(C)nc1N [Compound N21] |
| > 25000 | 134 | – | – | CCCCCc1cc(Cc2ccc(CN3CCNCC3)cc2)c(C)nc1N [Compound N10] |
| > 25000 | > 4000 | – | – | CCCCCc1cc(Cc2ccc(CN3CCOCC3)cc2O)c(C)nc1N [Compound N48] |
| > 25000 | 428 | – | – | CCCCCc1cc(Cc2ccc(CN3CCOCC3)cc2)c(C)nc1N [Compound N8] |
| > 25000 | > 4000 | – | – | COCCCc1cc(Cc2ccc(CN3CCN(C)CC3)cc2)c(C)nc1N [Compound N30] |
| > 25000 | > 4000 | – | – | CCCCCc1cc(Cc2ccccc2CN2CCCC2)c(C)nc1N [Compound N35] |
| > 25000 | 480 | – | – | CCCCCc1cc2nc(Cc3ccc(CN4CCCC4)cc3)ccc2nc1N [Compound N2] |
| > 25000 | 3000 | – | – | CCCCCc1cc(Cc2ccc(CN(C)CC(=O)OC)cc2)c(C)nc1N [Compound N13] |
| > 25000 | 130 | – | – | CCCCCc1cc(Cc2ccc(CNC3CC3)cc2)c(C)nc1N [Compound N20] |
| > 25000 | 124 | – | – | CCCCCc1cc(Cc2ccc(CN3CC[C@H](O)C3)cc2)c(C)nc1N [Compound N18] |
| > 25000 | 104 | – | – | CCCCCc1cc(Cc2ccc(CN3CC[C@@H](O)C3)cc2)c(C)nc1N [Compound N19] |

More lines, now with the values behind:

| Structure (SMILES) | EC50 ([1]; nd = EC50 larger than 25 μM) [nM] | EC50 [2, 3] [nM] | EC50 [1] [nM] | EC50 [2, 4] [nM] |
| --- | --- | --- | --- | --- |
| CCCCCc1cc(Cc2ccccc2CN)c(C)nc1N [Compound N37] | > 25000 | > 4000 | – | – |
| CCCN(CCC)C(=O)C1=Cc2ccc(-c3ccc(C(=O)N4CCCC4)cc3)cc2N=C(N)C1 [VTX2337, reference compound] | – | – | > 3000 | 102 |
| CCCCCc1cc(Cc2ccccc2CO)c(C)nc1N [Compound N33] | > 25000 | > 4000 | – | – |
| CCCCNc1cc(Cc2ccc(CN3CC4(COC4)C3)cc2)c(C)nc1N [Compound N57] | > 25000 | 16 | – | – |
| CCCCCc1cc(CCc2ccc(CN(C)C)cc2)c(C)nc1N [Compound N54] | > 25000 | 518 | – | – |
| CCCCCc1cc(Cc2ccc(CN(C)CCOCCOCCC(F)(F)P(=O)(OCC)OCC)cc2)c(C)nc1N [Compound N25] | > 25000 | > 4000 | – | – |
| CCCCCc1cc(Cc2ccc(CN(C)C)cc2OC)c(C)nc1N [Compound N42] | > 25000 | 87 | – | – |
| CCCCCc1cc(Cc2ccccc2CN(C)C)c(C)nc1N [Compound N34] | > 25000 | > 4000 | – | – |
| CCCCCc1cc(Cc2ccc(CN3CCN(C)CC3)cc2OC(C)=O)c(C)nc1N [Compound N53] | > 25000 | 273 | – | – |
| CCCCCc1cc(Cc2ccc(CN(C)C)cc2)cnc1N [Compound N31] | > 25000 | 248 | – | – |
| CCCCCc1cc(Cc2ccc(CN3CC4(COC4)C3)cc2F)c(C)nc1N [Compound N24] | > 25000 | 113 | – | – |
| CCCCNc1cc(Cc2ccc(CN(C)C)cc2)c(C)nc1N [Compound N55] | > 25000 | – | – | 15 |
| CCCCCc1cc2nc(Cc3ccc(CN(C)C)cc3)ccc2nc1N [Compound N1] | > 25000 | 398 | – | – |
| CCCCCc1cc(Cc2ccc(CN3CCOCC3)cc2OC)c(C)nc1N [Compound N44] | > 25000 | 1130 | – | – |
| CCCCCc1cc(Cc2ccc(CN3CCCC3)cc2OC(C)=O)c(C)nc1N [Compound N51] | > 25000 | 175 | – | – |
| CCCCCc1cc(Cc2ccc(CN(C)CCOCCOCCC(F)(F)P(=O)(O)O)cc2)c(C)nc1N [Compound N26] | > 25000 | > 4000 | – | – |
| CCCCCc1cc(Cc2ccc(C(=O)N(C)C)cc2)c(C)nc1N [Compound N38] | > 25000 | > 4000 | – | – |
| COCCCc1cc(Cc2ccc(CN(C)C)cc2)c(C)nc1N [Compound N28] | > 25000 | > 4000 | – | – |
| CCCCCc1cc(Cc2ccc(CN(C)C)cc2OC(=O)CC(C)C)c(C)nc1N [Compound N52] | > 25000 | 252 | – | – |

— patent publication US20240116962A1, “PYRIDINE-2-AMINE DERIVATIVE AND PHARMACEUTICAL COMPOSITION AND USE THEREOF” (TSINGHUA UNIVERSITY, priority 2020, published 2024)
